Source: patent US10738031B2, “N-[(heteroaryloxy)propanyl]heteroaryl carboxamides as antagonists of orexin subtype 1 receptor activity” (Boehringer Ingelheim International GmbH, priority 2016, dated 2020)

Columns and labels:
OX1R = target: T1, OX1R (Homo sapiens, UniProt O43613); test: OX1R potency as described in WO2016/034882; conditions: Table 3 of WO2016/034882; read-out: OX1R IC50 (corresponds to pIC50) (converted)
T1 sequence (O43613 1-425): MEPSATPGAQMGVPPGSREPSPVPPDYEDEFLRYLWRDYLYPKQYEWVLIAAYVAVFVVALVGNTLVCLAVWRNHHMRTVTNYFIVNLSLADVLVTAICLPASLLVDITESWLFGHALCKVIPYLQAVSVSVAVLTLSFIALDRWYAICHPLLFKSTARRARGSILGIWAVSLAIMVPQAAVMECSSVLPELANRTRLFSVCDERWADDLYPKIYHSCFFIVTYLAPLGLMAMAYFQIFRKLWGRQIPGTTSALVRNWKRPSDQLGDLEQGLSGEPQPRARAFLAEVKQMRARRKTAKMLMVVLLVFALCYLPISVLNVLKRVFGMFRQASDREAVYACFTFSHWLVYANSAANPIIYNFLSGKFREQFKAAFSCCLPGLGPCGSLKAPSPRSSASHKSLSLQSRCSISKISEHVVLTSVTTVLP

OX2R = target: T2, OX2R (Homo sapiens, UniProt O43614); test: OX2R potency as described in WO2016/034882; conditions: Table 3 of WO2016/034882; read-out: OX2R IC50 (corresponds to pIC50) (converted)
T2 sequence (O43614 1-444): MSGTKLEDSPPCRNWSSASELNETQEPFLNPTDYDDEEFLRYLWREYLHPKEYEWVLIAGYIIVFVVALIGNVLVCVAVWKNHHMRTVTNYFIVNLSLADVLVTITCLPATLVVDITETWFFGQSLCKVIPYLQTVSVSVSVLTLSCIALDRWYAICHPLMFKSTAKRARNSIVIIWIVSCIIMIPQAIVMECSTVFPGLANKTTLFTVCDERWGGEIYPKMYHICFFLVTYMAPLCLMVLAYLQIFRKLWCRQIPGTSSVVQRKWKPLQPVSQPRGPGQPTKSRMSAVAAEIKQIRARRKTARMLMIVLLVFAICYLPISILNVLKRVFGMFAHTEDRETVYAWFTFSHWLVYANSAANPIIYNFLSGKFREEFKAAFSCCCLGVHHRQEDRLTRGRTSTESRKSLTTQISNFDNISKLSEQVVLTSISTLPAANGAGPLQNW

human Orexin 1 receptor = target: T3, human Orexin 1 receptor (Homo sapiens, UniProt O43613); test: Assay A: OX1R IP1 (in vitro OX1R potency); type: cell-based; conditions: for Kb: Table 3
T3 construct: stably expressing the full-length human Orexin 1 receptor; expressed in transfected cells; host or cells: CHO-K1 (CHO-K1/hOX1), co-expressing aequorin
T3 sequence (O43613 1-425): T1 sequence (O43613 1-425)

[1] = Assay C: Human MST t1/2 (stability in human liver microsomes); type: in vitro ADME; conditions: for half-life: human liver microsomes
human orexin 2 receptor = target: T4, human orexin 2 receptor (Homo sapiens, UniProt O43614); test: Assay B: OX2R IP1 (in vitro OX2R potency); type: cell-based; conditions: Table 3; 0.5 nM Orexin A concentration
T4 construct: stably expressing the full-length human orexin 2 receptor; expressed in transfected cells; host or cells: CHO-K1 (CHO-K1/hOX2), co-expressing aequorin
T4 sequence (O43614 1-444): T2 sequence (O43614 1-444)
Source text: Activation of the orexin receptors expressed in cell lines results in an increase in intracellular IP3 concentration. IP1, a downstream metabolite of IP3, accumulates in cells following receptor activation and is stable in the presence of LiCl. Using Homogeneous Time-Resolved Fluorescence technology with Lumi4-Tb cryptate (commercially available from Cisbio Bioassay.) and a suitable fluorescence plate reader. This functional response is detectable and quantifiable as described in Trinquet et al. Anal. […] Curr. Chem. Genomics 2009, 3, 22-32. This technique is used to characterize pharmacological modification of the orexin receptors. B. In Vitro Testing of OX2R Potency: OX2R IP1 IP1 measurements are performed in CHO-K1 cells stably expressing the full-length human orexin 2 receptor and the aequorin photoprotein. Cells are cultivated in Ham's nutrient mixture F12 medium with 10% fetal calf serum, in a 37° C., 95% humidity and 5% CO2 incubator. The CHO-K1/hOX2 cell mass is expanded to larger cell numbers. The cells are obtained as frozen cells in cryo-vials and stored until use at -150° C. The viability of the cells after thawing is >90%. In preparation for the assay, 24 hours before the assay, the cells are thawed at 37° C. and immediately diluted with cell culture medium. After centrifugation, the cell pellet is resuspended in medium and then distributed into the assay plates with a density of 5000 cells/25 μL per well. The plates are incubated for one hour at room temperature to reduce edge effects before they are incubated for 24 hours at 37° C./5% CO2. […] On the day of the assay, cells in the plate are washed twice with 60 μL assay buffer (20 μL buffer remained in the wells after washing), followed by adding 5 μL per well of compounds diluted in assay buffer. […] The assay plate is incubated for 60 minutes at 37° C. Then 5 μL per well of Anti-IP1-Cryptate Tb solution and 5 μL per well of IP1-d2 dilution are added to all well of the plate and the plate is incubated for a further 60 minutes light protected at room temperature. […] The ratio between the emission at 665 nm and 615 is calculated by the reader. […] AssayExplorer (Accelrys). In order to establish an agonist concentration independent parameter, Kb values are calculated using the following equation: […] Sci. 1993, 14(4), 110-112).

Row | SMILES | IC50 (OX1R) [nM] | IC50 (OX2R) [nM] | OX2R Kb/OX1R Kb (human Orexin 1 receptor) | Kb (human Orexin 1 receptor; Orexin A concentration 50 nM) [nM] | half-life [1] [min] | Kb (human orexin 2 receptor) [nM] | Kb (human Orexin 1 receptor; Orexin A concentration 0.5 nM) [nM] | stability in human liver microsomes (in words) ([1]; compared with closest prior art compounds in WO2016/034882)
1 | CC[C@@H](CNc1cnc(C(F)(F)F)cn1)N(CC)C(=O)c1nc(C)ccc1-n1nccn1 [Ex 70 in WO2016/ 034882] | 1.6 | > 5000 | 319 | 0.135 | – | – | – | –
2 | CCN(C(=O)c1ccncc1-n1cccn1)[C@@H](C)COc1ccc(C(F)(F)F)cn1 [Example 40] | – | – | 120 | – | 10 | 1560 | 13 | –
3 | CCN(C(=O)c1cnc(C)nc1-c1ccccc1)[C@@H](C)COc1cnc(C(F)(F)F)cn1 [Example 9] | – | – | 522 | – | > 130 | 939 | 1.8 | –
4 | CCN(C(=O)c1cnccc1-n1cccn1)[C@@H](C)COc1ccc(C(F)(F)F)cn1 [Example 69] | – | – | 139 | – | 13 | 305 | 2.2 | –
5 | CCN(C(=O)c1cc(F)cnc1-c1ncccn1)[C@@H](C)COc1ncc(C(F)(F)F)cc1F [Example 35] | – | – | 706 | – | > 130 | 3250 | 4.6 | –
6 | CCN(C(=O)c1nc(C)ccc1-c1ncccn1)[C@@H](C)COc1cnc(C(F)(F)F)cn1 [Example 53] | – | – | 105 | – | > 130 | 337 | 3.2 | markedly improved stability in human liver microsomes
7 | CCN(C(=O)c1ncccc1-n1nccn1)[C@@H](C)COc1ncc(C(F)(F)F)cc1F [Example 57] | – | – | 233 | – | 56 | 419 | 1.8 | –
8 | CCN(C(=O)c1nc(C)ccc1-n1nccn1)[C@@H](C)COc1cnc(C(F)(F)F)cn1 [Example 10] | – | – | 300 | – | > 130 | 749 | 2.5 | –
9 | CCN(C(=O)c1ccncc1-c1ccn(C)n1)[C@@H](C)COc1ccc(C(F)(F)F)cn1 [Example 29] | – | – | 184 | – | 11 | 1600 | 8.7 | –
10 | CCN(C(=O)c1ncccc1-c1ccn(C)n1)[C@@H](C)COc1ccc(C(F)(F)F)cn1 [Example 34] | – | – | 190 | – | 81 | 285 | 1.5 | –
11 | CCN(C(=O)c1c(F)ccnc1-c1ccn(C)n1)[C@@H](C)COc1ccc(C(F)(F)F)cn1 [Example 58] | – | – | 93 | – | 41 | 327 | 3.5 | –
12 | CCN(C(=O)c1nc(C)ccc1-n1nccn1)[C@@H](C)COc1ccc(Cl)cn1 [Example 8] | – | – | 158 | 0.45 | 25 | 71 | – | –
13 | CCN(C(=O)c1cc(F)cnc1-c1ncccn1)[C@@H](C)COc1ccc(C(F)(F)F)cn1 [Example 70] | – | – | 691 | – | > 130 | 1040 | 1.5 | –
14 | CCN(C(=O)c1cc(Cl)cnc1-n1nccn1)[C@@H](C)COc1ccc(C(F)(F)F)cn1 [Example 72] | – | – | – | 0.24 | > 130 | 250 | 0.37 | –
15 | CCN(C(=O)c1cnc(C)nc1-c1ccccc1)[C@@H](C)COc1ncc(C(F)(F)F)cn1 [Example 11] | – | – | 860 | – | 88 | 1290 | 1.5 | –
16 | CCN(C(=O)c1ncccc1-n1nccn1)[C@@H](C)COc1ccc(C(F)(F)F)cn1 [Example 26] | – | – | 281 | – | > 130 | 267 | 0.95 | –

Row | SMILES | IC50 (OX1R) [nM] | IC50 (OX2R) [nM] | OX2R Kb/OX1R Kb (human Orexin 1 receptor) | Kb (human Orexin 1 receptor; Orexin A concentration 50 nM) [nM] | half-life [1] [min] | Kb (human orexin 2 receptor) [nM] | Kb (human Orexin 1 receptor; Orexin A concentration 0.5 nM) [nM] | stability in human liver microsomes (in words) ([1]; compared with closest prior art compounds in WO2016/034882)
17 | CCN(C(=O)c1ncc(C)cc1-c1ccn(C)n1)[C@@H](C)COc1ccc(C(F)(F)F)cn1 [Example 20] | – | – | 1660 | 0.25 | 24 | 415 | – | –
18 | CCN(C(=O)c1ccc(C)nc1-n1nccn1)[C@@H](C)COc1cnc(C(F)(F)F)cn1 [Example 33] | – | – | 421 | – | > 130 | 3280 | 7.8 | –
19 | CCN(C(=O)c1cnccc1-n1nccn1)[C@@H](C)COc1ncc(C(F)(F)F)cc1F [Example 42] | – | – | 210 | – | 13 | 483 | 2.3 | –
20 | CCN(C(=O)c1ccc(C)nc1-n1nccn1)[C@@H](C)COc1ncc(C(F)(F)F)cc1F [Example 60] | – | – | – | 0.66 | > 130 | 882 | 0.67 | –
21 | CCN(C(=O)c1cc(OC)cnc1-n1nccn1)[C@@H](C)COc1ccc(Cl)cn1 [Example 43] | – | – | 171 | – | 110 | 325 | 1.9 | –
22 | CCN(C(=O)c1cnccc1-n1nccn1)[C@@H](C)COc1ccc(C(F)(F)F)cn1 [Example 36] | – | – | 240 | – | 15 | 240 | 1 | –
23 | CCN(C(=O)c1cccnc1-n1nccn1)[C@@H](C)COc1ccc(Cl)cn1 [Example 51] | – | – | 138 | – | > 130 | 1140 | 8.3 | –
24 | CCN(C(=O)c1nc(C)ccc1-n1nccn1)[C@@H](C)COc1ncc(C(F)(F)F)cc1F [Example 12] | – | – | 268 | – | 13 | 206 | 0.77 | –
25 | CCN(C(=O)c1cc(OC)cnc1-n1nccn1)[C@@H](C)COc1ccc(C(F)(F)F)cn1 [Example 56] | – | – | – | 0.49 | > 130 | 260 | 0.5 | –
26 | CCN(C(=O)c1nccc(C(F)(F)F)c1-c1ccn(C)n1)[C@@H](C)COc1ccc(C(F)(F)F)cn1 [Example 50] | – | – | 236 | 0.11 | 23 | 26 | – | –
27 | CCN(C(=O)c1cc(F)cnc1-c1ncccn1)[C@@H](C)COc1cnc(C(F)(F)F)cn1 [Example 45] | – | – | 332 | – | > 130 | 6650 | 20 | –
28 | CCN(C(=O)c1cccnc1-n1nccn1)[C@@H](C)COc1ncc(C(F)(F)F)cc1F [Example 44] | – | – | 289 | – | > 130 | 1210 | 4.2 | –
29 | CCN(C(=O)c1ccc(C)nc1-n1nccn1)[C@@H](C)COc1ncc(C(F)(F)F)cn1 [Example 30] | – | – | 641 | – | > 130 | 3590 | 5.6 | –
30 | CCN(C(=O)c1cc(F)cnc1-c1nnc(C)o1)[C@@H](C)COc1ccc(C(F)(F)F)cn1 [Example 59] | – | – | 214 | – | > 130 | 6640 | 31 | –
31 | CCN(C(=O)c1ccc(C)nc1-n1nccn1)[C@@H](C)COc1ccc(C(F)(F)F)cn1 [Example 17] | – | – | 1618 | 0.22 | 59 | 356 | – | –
